Measurements from EP4603105A1, “PHARMACEUTICAL COMPOSITION CONTAINING CYCLIC COMPOUND HAVING SELECTIVE KRAS INHIBITORY EFFECT AGAINST HRAS AND NRAS” (CHUGAI SEIYAKU KABUSHIKI KAISHA, priority 2022, dated 2024).
Where two headings read alike, the source gives them in different places.

Columns and labels:
[1] = molecular target: GDP-bound KRAS wild-type protein (Homo sapiens, UniProt P01116); experiment: Binding to KRAS by surface plasmon resonance (SPR), dissociation constant KD
Outline: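 Biotinylated GDP-bound RAS was captured at about 100–300 RU. Running buffer: HBS pH 7.4, 10 mM MgCl2, 10 µM GDP, 1 mM DTT, 0.01% Tween 20, 4% DMSO.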

[2] = molecular target: GDP-bound NRAS wild-type protein (Homo sapiens, UniProt P01111); experiment: Binding to NRAS by surface plasmon resonance (SPR), KD and KD ratio to KRAS
Sequence of GDP-bound NRAS wild-type protein (P01111 whole entry): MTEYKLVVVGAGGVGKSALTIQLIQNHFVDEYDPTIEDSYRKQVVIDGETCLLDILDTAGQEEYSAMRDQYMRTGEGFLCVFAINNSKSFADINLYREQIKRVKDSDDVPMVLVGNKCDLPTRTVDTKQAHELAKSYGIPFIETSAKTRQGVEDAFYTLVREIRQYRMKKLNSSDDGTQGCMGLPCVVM
Outline: (§1)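 Single-cycle kinetics on GDP-loaded biotin-Avi RAS captured to ~100–300 RU; 75 s ascending injections, 100 µL/min, 30°C. HBS pH 7.4 + 10 mM MgCl2/10 µM GDP/4% DMSO. 1:1 fit, KD.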

HRAS wild-type protein = HRAS wild-type protein (Homo sapiens, UniProt P01112); experiment: Binding to HRAS by surface plasmon resonance (SPR), KD and KD ratio to KRAS
Sequence of HRAS wild-type protein (P01112 whole entry): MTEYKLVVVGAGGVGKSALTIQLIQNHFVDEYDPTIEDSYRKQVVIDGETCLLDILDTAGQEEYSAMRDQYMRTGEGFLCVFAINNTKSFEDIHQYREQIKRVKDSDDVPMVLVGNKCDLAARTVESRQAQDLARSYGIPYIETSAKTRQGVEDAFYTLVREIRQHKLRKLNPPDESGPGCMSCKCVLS
Outline: as §1

[3] = test system: human lung cancer strain NCI-H441; experiment: NCI-H441 cell proliferation inhibitory activity (CellTiter-Glo, 4 days); type: cell-based; details: read-out: NCl-H441 IC50
Outline: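 Proliferation was scored by […] measured after the reagent was added to cultures kept at 37°C in 5% carbon dioxide.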

[4] = Single Cycle Kinetics, 1:1 binding model
[5] = ratio of KD with respect to GDP-bound NRAS wild-type protein to KD with respect to KRAS
[6] = ratio of KD with respect to HRAS wild-type protein to KD with respect to KRAS
[7] = 50% proliferation inhibitory concentration, four days
[8] = ratio of KD for GDP-bound NRAS wild-type protein to KD for KRAS
[9] = ratio of KD for HRAS wild-type protein to KD for KRAS

Sequence of GDP-bound KRAS wild-type protein (P01116 1-188 isoform P01116-2): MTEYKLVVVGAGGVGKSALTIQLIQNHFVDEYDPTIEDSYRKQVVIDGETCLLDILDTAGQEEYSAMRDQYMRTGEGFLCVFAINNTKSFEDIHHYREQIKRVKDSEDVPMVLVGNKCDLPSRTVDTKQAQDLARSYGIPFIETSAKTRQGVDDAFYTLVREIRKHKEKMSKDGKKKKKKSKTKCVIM

| Compound | Kd [1, 4] [nM] | NRAS /KRAS [2, 5] | HRAS /KRAS (HRAS wild-type protein; [6]) | IC50 [3, 7] [nM] | Kd ([1]; 1:1 binding model) [nM] | NRAS /KRAS [2, 8] | HRAS /KRAS (HRAS wild-type protein; [9]) | IC50 ([3]; NCI-H441 cells, 4 days) [nM] | Kd ([1]; Single Cycle Kinetics) [nM] |
| --- | --- | --- | --- | --- | --- | --- | --- | --- | --- |
| CCO[C@@H]1C[C@H]2C(=O)NC3(CCC3)C(=O)N(C)[C@@H](C3CCCC3)C(=O)N(C)[C@H](C(=O)N(C)C)CC(=O)N(C)[C@@H](CC3CC3)C(=O)N[C@@H]([C@@H](C)CC)C(=O)N(C)CC(=O)N(C)[C@H]3C/C=C\CCN(C3=O)[C@@H](CC3CCCCC3)C(=O)N(C)CC(=O)N[C@@H](CCc3cc(F)c(C(F)(F)F)c(F)c3)C(=O)N2C1 [PP1446] | 0.2 | A (a compound having 10 or more and less than 20 is denoted as A) | A (a compound having 10 or more and less than 20 is denoted as A) | 32 | – | – | – | – | – |
| CCCOC[C@H]1C(=O)N[C@@H]([C@@H](C)CC)C(=O)N2CCC[C@H]2C(=O)N(C)[C@H]2C/C=C\CCN(C2=O)[C@@H](Cc2ccc(C)cc2)C(=O)N(C)CC(=O)N[C@@H](CCc2ccc(C(F)(F)F)c(OC)c2)C(=O)N2C[C@@H](C)C[C@H]2C(=O)N(C)C2(CCC2)C(=O)N(C)[C@@H](C2CCCC2)C(=O)N(C)[C@H](C(=O)N(C)C)CC(=O)N1C [PP2369] | – | – | – | – | 0.062 | A (a compound having 10 or more and less than 20 is denoted as A) | B (a compound having 3 or more and less than 10 is denoted as B) | 4.5 | – |
| CC[C@H](C)[C@@H]1NC(=O)[C@H](CC2CC2)N(C)C(=O)C[C@@H](C(=O)N(C)C)N(C)C(=O)[C@H](C2CCCC2)N(C)C(=O)C2(CCC2)NC(=O)[C@H](CCC(F)F)N(C)C(=O)[C@H](CCc2cc(F)c(C(F)(F)F)c(F)c2)NC(=O)CN(C)C(=O)[C@H](Cc2ccc(C(F)(F)F)cc2)N2CC/C=C\C[C@@H](C2=O)N(C)C(=O)CN(C)C1=O [PP1402] | 0.3 | A (a compound having 10 or more and less than 20 is denoted as A) | A (a compound having 10 or more and less than 20 is denoted as A) | 82 | – | – | – | – | – |
| C#CC[C@H]1C(=O)N[C@@H]([C@@H](C)CC)C(=O)N(C)CC(=O)N(C)[C@H]2C/C=C\CCN(C2=O)[C@@H](Cc2ccc(C)cc2)C(=O)N(C)CC(=O)N[C@@H](CCc2ccc(C(F)(F)F)c(OC)c2)C(=O)N2C[C@H](OCC)C[C@H]2C(=O)N(C)C2(CCC2)C(=O)N(C)[C@@H](C2CCCC2)C(=O)N(C)[C@H](C(=O)N(C)C)CC(=O)N1C [PP3236] | – | – | – | – | – | A (a compound having 10 or more and less than 20 is denoted as A) | B (a compound having 3 or more and less than 10 is denoted as B) | 3.9 | 0.028 |
| CCO[C@@H]1C[C@H]2C(=O)NC3(CCC3)C(=O)N(C)[C@@H](C3CCCC3)C(=O)N(C)[C@H](C(=O)N(C)C)CC(=O)N(C)[C@@H](CC(C)C)C(=O)N[C@@H]([C@@H](C)CC)C(=O)N(C)CC(=O)N(C)[C@H]3C/C=C\CCN(C3=O)[C@@H](CC3CCCCC3)C(=O)N(C)CC(=O)N[C@@H](CCc3cc(F)c(C(F)(F)F)c(F)c3)C(=O)N2C1 [PP1467] | 0.12 | A (a compound having 10 or more and less than 20 is denoted as A) | A (a compound having 10 or more and less than 20 is denoted as A) | 11.2 | – | – | – | – | – |
| C=CC[C@H]1C(=O)N[C@@H]([C@@H](C)CC)C(=O)N(C)CC(=O)N(C)[C@H]2C/C=C\CCN(C2=O)[C@@H](CC2CCC(F)(F)CC2)C(=O)N(C)CC(=O)N[C@@H](CCc2cc(F)c(C(F)(F)F)c(F)c2)C(=O)N2C[C@H](OCC)C[C@H]2C(=O)NC2(CCC2)C(=O)N(C)[C@@H](C2CCCC2)C(=O)N(C)[C@H](C(=O)N(C)C)CC(=O)N1C [PP1454] | 0.096 | A (a compound having 10 or more and less than 20 is denoted as A) | A (a compound having 10 or more and less than 20 is denoted as A) | 15.2 | – | – | – | – | – |
| CCCN1CC(=O)N(C)[C@H]2C/C=C\CCN(C2=O)[C@@H](Cc2ccc(C(F)F)cc2)C(=O)N(C)CC(=O)N[C@@H](CCc2cc(F)c(C(F)(F)F)c(F)c2)C(=O)N2C[C@H](OC(C)C)C[C@H]2C(=O)N(C)C2(CCC2)C(=O)N(C)[C@@H](C(CC)CC)C(=O)N(C)[C@H](C(=O)N(C)C)CC(=O)N(C)[C@@H](CC(F)F)C(=O)N[C@@H](C2CCCC2)C1=O [PP3497] | – | – | – | – | – | A (a compound having 10 or more and less than 20 is denoted as A) | A (a compound having 10 or more and less than 20 is denoted as A) | 21.2 | 0.74 |
| CCO[C@@H]1C[C@H]2C(=O)NC3(CC(C)(C)C3)C(=O)N(C)[C@@H](C(CC)CC)C(=O)N(C)[C@H](C(=O)N(C)C)CC(=O)N(C)[C@@H](COC)C(=O)N[C@@H]([C@@H](C)CC)C(=O)N3CCC[C@H]3C(=O)N(C)[C@H]3C/C=C\CCN(C3=O)[C@@H](Cc3ccc(C(F)(F)F)cc3)C(=O)N(C)CC(=O)N[C@@H](CCc3ccc(Cl)c(Cl)c3)C(=O)N2C1 [PP2635] | – | – | – | – | 0.97 | AA (a compound having 20 or more is denoted as AA) | A (a compound having 10 or more and less than 20 is denoted as A) | 50.2 | – |
| CCC[C@H]1C(=O)N[C@@H]([C@@H](C)CC)C(=O)N(C)CC(=O)N(C)[C@H]2C/C=C\CCN(C2=O)[C@@H](Cc2ccc(C)cc2)C(=O)N(C)CC(=O)N[C@@H](CCc2cc(F)c(C(F)(F)F)c(F)c2)C(=O)N2C[C@H](OCC)C[C@H]2C(=O)NC2(CC(C)(C)C2)C(=O)N(C)[C@@H](CC(C)(C)C)C(=O)N(C)[C@H](C(=O)N(C)C)CC(=O)N1C [PP2706] | – | – | – | – | 0.076 | A (a compound having 10 or more and less than 20 is denoted as A) | B (a compound having 3 or more and less than 10 is denoted as B) | 2.3 | – |
| CCC[C@H]1C(=O)N[C@@H](CC(C)C)C(=O)N(C2CC2)CC(=O)N(C)[C@H]2C/C=C\CCN(C2=O)[C@@H](Cc2ccc(C)cc2)C(=O)N(C)CC(=O)N[C@@H](CCc2cc(F)c(C(F)(F)F)c(F)c2)C(=O)N2C[C@H](OCC)C[C@H]2C(=O)NC2(CC(C)(C)C2)C(=O)N(C)[C@@H](C2CCCC2)C(=O)N(C)[C@H](C(=O)N(C)C)CC(=O)N1C [PP2508] | – | – | – | – | 3.4 | A (a compound having 10 or more and less than 20 is denoted as A) | B (a compound having 3 or more and less than 10 is denoted as B) | 124 | – |
| CCC[C@H]1C(=O)N[C@@H](CC(C)C)C(=O)N(CCOC)CC(=O)N(C)[C@H]2C/C=C\CCN(C2=O)[C@@H](Cc2ccc(C)cc2)C(=O)N(C)CC(=O)N[C@@H](CCc2cc(F)c(C(F)(F)F)c(F)c2)C(=O)N2C[C@H](OCC)C[C@H]2C(=O)NC2(CC(C)(C)C2)C(=O)N(C)[C@@H](C2CCCC2)C(=O)N(C)[C@H](C(=O)N(C)C)CC(=O)N1C [PP2520] | – | – | – | – | 3.3 | A (a compound having 10 or more and less than 20 is denoted as A) | A (a compound having 10 or more and less than 20 is denoted as A) | 210 | – |
| CCO[C@@H]1C[C@H]2C(=O)NC3(CCCC3)C(=O)N(C)[C@@H](C3CCCC3)C(=O)N(C)[C@H](C(=O)N(C)C)CC(=O)N(C)[C@@H](CC)C(=O)N[C@@H]([C@@H](C)CC)C(=O)N(C)CC(=O)N(C)[C@H]3CC[C@@H](C)CN(C3=O)[C@@H](Cc3ccc(C(F)(F)F)cc3)C(=O)N(C)CC(=O)N[C@@H](CCc3cc(F)c(C(F)(F)F)c(F)c3)C(=O)N2C1 [PP1370] | 0.057 | C (A compound having a KD ratio of 0.1 or more and less than 3 is denoted as C) | C (A compound having a KD ratio of 0.1 or more and less than 3 is denoted as C) | 2.3 | – | – | – | – | – |
| CC[C@H](C)[C@@H]1NC(=O)[C@H](COC)N(C)C(=O)C[C@@H](C(=O)N(C)C)N(C)C(=O)[C@H](C2CCCC2)N(C)C(=O)C2(CC(C)(C)C2)NC(=O)[C@@H]2C[C@H](C)CN2C(=O)[C@H](CCc2ccc(C(F)(F)F)c(Cl)c2)NC(=O)CN(C)C(=O)[C@H](Cc2ccc(C)cc2)N2CC/C=C\C[C@@H](C2=O)N(C)C(=O)CN(C)C1=O [PP2502] | – | – | – | – | 0.065 | A (a compound having 10 or more and less than 20 is denoted as A) | A (a compound having 10 or more and less than 20 is denoted as A) | 7.9 | – |
| CCO[C@@H]1C[C@H]2C(=O)NC3(CCC3)C(=O)N(C)[C@@H](C(CC)CC)C(=O)N(C)[C@H](C(=O)N(C)C)CC(=O)N(C)[C@@H](CC3CCCC3)C(=O)N[C@@H]([C@@H](C)CC)C(=O)N(C)CC(=O)N(C)[C@H]3C/C=C\CCN(C3=O)[C@@H](CC3CCCCC3)C(=O)N(C)CC(=O)N[C@@H](CCc3cc(F)c(C(F)(F)F)c(F)c3)C(=O)N2C1 [PP1430] | 0.85 | A (a compound having 10 or more and less than 20 is denoted as A) | A (a compound having 10 or more and less than 20 is denoted as A) | 70.4 | – | – | – | – | – |
| CCCCCC[C@H]1C(=O)N[C@@H]([C@@H](C)CC)C(=O)N(C)CC(=O)N(C)[C@H]2C/C=C\CCN(C2=O)[C@@H](Cc2ccc(C(F)(F)F)cc2)C(=O)N(C)CC(=O)N[C@@H](CCc2ccc(C(F)(F)F)c(OC)c2)C(=O)N2C[C@H](OCC)C[C@H]2C(=O)NC2(CCC2)C(=O)N(C)[C@@H](C2CCCC2)C(=O)N(C)[C@H](C(=O)N(C)C)CC(=O)N1C [PP1246] | 0.081 | A (a compound having 10 or more and less than 20 is denoted as A) | A (a compound having 10 or more and less than 20 is denoted as A) | 9 | – | – | – | – | – |
